In one assay the target is T1, active p38 alpha enzyme (Upstate Biotechnology) (Homo sapiens, UniProt Q16539).
T1 construct: purchased Upstate Biotechnology
T1 sequence (Q16539 whole entry): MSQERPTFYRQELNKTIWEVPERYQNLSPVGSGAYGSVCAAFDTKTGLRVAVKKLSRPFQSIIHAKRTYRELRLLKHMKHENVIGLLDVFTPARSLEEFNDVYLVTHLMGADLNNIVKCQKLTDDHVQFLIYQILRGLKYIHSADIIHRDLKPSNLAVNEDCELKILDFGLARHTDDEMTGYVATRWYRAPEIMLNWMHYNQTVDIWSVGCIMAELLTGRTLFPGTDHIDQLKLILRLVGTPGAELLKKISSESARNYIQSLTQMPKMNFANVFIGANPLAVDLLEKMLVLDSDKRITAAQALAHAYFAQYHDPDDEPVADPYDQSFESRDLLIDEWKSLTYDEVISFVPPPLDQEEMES
Nature of the assay: p38α biochemical assay (ATP turnover, luminescent detection, Cambrex PKlight). The following applies: p38α biochemical assay, Table 1 Biological Activity. Summed up:
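In this kinase reaction, p38α used MapkapK2 as phosphorylation substrate at low ATP (1.4 uM final) over 2 hours at 30C, and activity was followed as ATP turnover by luminescence.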
On to `CC(C)NC(=O)c1csc(-c2oc(CNC(=O)c3ccccc3[N+](=O)[O-])nc2-c2ccc(F)cc2)n1` [Example 184], for which the IC50 – broadly, the point on the concentration scale where inhibition reaches its midpoint – is ≤ 1 µM.

With `CC(CC(=O)N1CCN(Cc2nc(-c3ccc(F)cc3)c(-c3nc(C(=O)NC(C)C)cs3)o2)CC1)CC(C)(C)C` (stereo not drawn) [Example 399], the IC50 is ≤ 1 µM.

Turning to `CC(C)NC(=O)c1csc(-c2oc(CNC(=O)C(NC(=O)OC(C)(C)C)C(C)C)nc2-c2ccc(F)cc2)n1` (stereo not drawn) [Example 299], the IC50 is > 1 µM.

`O=C(O)c1csc(-c2c(-c3ccc(F)cc3)ncn2C2CCNCC2)n1` [Example 95, 2-|5-(4-Fluoro-phenyl)-3-piperidin-4-yl-3H-imidazol-4-yl|-thiazole-4-carboxylic acid]: the 50% inhibitory concentration (IC50) is > 1 µM.

For the compound `Cc1onc(-c2ccc(Cl)cc2)c1-c1ccn(C(=O)NCCO)n1` [Example 5, 3-|3-(4-Chloro-phenyl)-5-methyl-isoxazol-4-yl|-pyrazole-1-carboxylic acid (2-hydroxy-ethyl)-amide], the IC50 is ≤ 1 µM.

`Cc1ccc(C)c(C(=O)NCc2nc(-c3ccc(F)cc3)c(-c3nc(C(=O)NC(C)C)cs3)o2)c1` [Example 137]: the IC50 was > 1 µM.

Regarding `CC(C)NC(=O)c1csc(-c2c(-c3ccc(F)cc3)noc2CNC(=O)/C=C/c2ccccc2Cl)n1` [Example 706], the half-inhibitory concentration (IC50) is > 1 µM.

As to `CC(C)NC(=O)c1csc(-c2c(-c3ccc(F)cc3)noc2CNC(=O)c2ccc(C#N)cc2)n1` [Example 604], the IC50 was > 1 µM.

For the compound `Cc1cc(C(=O)NCc2onc(-c3ccc(F)cc3)c2-c2nc(C(=O)NC(C)C)cs2)ccc1Br` [Example 767], the IC50 was > 1 µM.

Consider `COc1ccccc1/C=C/C(=O)NCc1nc(-c2ccc(F)cc2)c(-c2nc(C(=O)NC(C)C)cs2)o1` [Example 205], for which the IC50 is > 1 µM.

On to `CC(C)NC(=O)c1csc(-c2oc(CN3CCN(C(=O)c4ccncc4Cl)CC3)nc2-c2ccc(F)cc2)n1` [Example 393], for which the half-inhibitory concentration (IC50) is > 1 µM.

Turning to `CC(C)NC(=O)c1csc(-c2oc(CNC(=O)C(C)(C)C)nc2-c2ccc(F)cc2)n1` [Example 103], the IC50 is ≤ 1 µM.

Take `CC(C)NC(=O)c1csc(-c2oc(CNC(=O)c3cc(F)c(F)c(O)c3F)nc2-c2ccc(F)cc2)n1` [Example 254]: the IC50 is > 1 µM.

Take `CC(C)NC(=O)c1csc(-c2c(-c3ccc(F)cc3)noc2CNC(=O)C2=CCCC2)n1` [Example 582]: the concentration for half-maximal inhibition (IC50) was > 1 µM.

For the compound `CC(C)NC(=O)c1csc(-c2oc(CNC(=O)c3cnc[nH]3)nc2-c2ccc(F)cc2)n1` [Example 105], the 50% inhibitory concentration (IC50) is ≤ 1 µM.

On to `CC(=O)Nc1cccc(C(=O)NCc2nc(-c3ccc(F)cc3)c(-c3nc(C(=O)NC(C)C)cs3)o2)c1` [Example 211], for which the IC50 is > 1 µM.

On to `CC(C)NC(=O)c1csc(-c2c(-c3ccc(F)cc3)noc2CNC(=O)C(C)O)n1` (stereo not drawn) [Example 576], for which the 50% inhibitory concentration (IC50) is > 1 µM.

In the case of `COc1cc(OC)c(C(=O)N2CCN(Cc3nc(-c4ccc(F)cc4)c(-c4nc(C(=O)NC(C)C)cs4)o3)CC2)cc1OC` [Example 521], the IC50 was ≤ 1 µM.

As to `Cc1nc(-c2ccc(F)cc2)c(-c2nc(C(=O)NCC3CC3)cs2)s1` [Example 51, 4′-(4-Fluoro-phenyl)-2′-methyl-|2,5′|bithiazolyl-4-carboxylic acid cyclopropylmethyl-amide], the IC50 was ≤ 1 µM.

For `CC(C)NC(=O)c1csc(-c2oc(CN3CCN(C(=O)c4ccc(F)c([N+](=O)[O-])c4)CC3)nc2-c2ccc(F)cc2)n1` [Example 474], the 50% inhibitory concentration (IC50) was > 1 µM.

For `CC(C)NC(=O)c1csc(-c2oc(CN3CCN(C(=O)c4cccc([N+](=O)[O-])c4)CC3)nc2-c2ccc(F)cc2)n1` [Example 422], the concentration for half-maximal inhibition (IC50) was > 1 µM.

As for `CC(C)NC(=O)c1csc(-c2c(-c3ccc(F)cc3)noc2CNC(=O)c2ccc(Cl)cc2[N+](=O)[O-])n1` [Example 748], the half-maximal inhibitory concentration (IC50) is > 1 µM.

As to `CC(C)NC(=O)c1csc(-c2oc(CN3CCN(C(=O)c4ccc(Oc5cccc(O)c5)cc4)CC3)nc2-c2ccc(F)cc2)n1` [Example 549], the IC50 was > 1 µM.

For `CC(C)NC(=O)c1csc(-c2oc(CN3CCN(C(=O)c4cc(F)ccc4[N+](=O)[O-])CC3)nc2-c2ccc(F)cc2)n1` [Example 473], the IC50 is > 1 µM.

The same assay, now with this note: p38α kinase; Table 1 Biological Activity.
In the case of `CC(C)NC(=O)c1csc(-c2c(-c3ccc(F)cc3)noc2CN2CCN(Cc3ccccc3)CC2)n1` [Example 1575], the IC50 is > 1 µM.

Regarding `CC(C)NC(=O)c1csc(-c2oc(CN(CCO)[C@H](C)c3ccccc3)nc2-c2ccc(F)cc2)n1` [Example 1244], the IC50 was > 1 µM.

Regarding `CC(C)NC(=O)c1csc(-c2c(-c3ccc(F)cc3)n[nH]c2C2CCN(C(=O)c3cccc(Cl)c3[N+](=O)[O-])CC2)n1` [Example 984], the IC50 was > 1 µM.

For `CC(C)NC(=O)c1csc(-c2c(-c3ccc(F)cc3)n[nH]c2C2CCN(C(=O)Cc3ccccc3O)CC2)n1` [Example 857], the IC50 was ≤ 1 µM.

As to `CC(C)NC(=O)c1csc(-c2c(-c3ccc(F)cc3)n[nH]c2C2CCN(C(=O)c3ccc(Cl)c([N+](=O)[O-])c3)CC2)n1` [Example 988], the 50% inhibitory concentration (IC50) is ≤ 1 µM.

As to `CC(C)NC(=O)c1csc(-c2oc(CNC3CCCCCC3)nc2-c2ccc(F)cc2)n1` [Example 1091], the half-maximal inhibitory concentration (IC50) was > 1 µM.

With `CCN(Cc1nc(-c2ccc(F)cc2)c(-c2nc(C(=O)NC(C)C)cs2)o1)C1CCCCC1` [Example 1218], the IC50 is > 1 µM.

With `CC(C)NC(=O)c1csc(-c2c(-c3ccc(F)cc3)noc2CNN2CCN(C)CC2)n1` [Example 1425], the IC50 was > 1 µM.

On to `Cc1nc(-c2ccc(F)cc2)c(-c2nc(C(=O)NCCc3ccc(F)cc3)cs2)s1` [Example 1782], for which the IC50 was > 1 µM.

As for `Cc1nc(-c2ccc(F)cc2)c(-c2nc(C(=O)NC(C)Cc3ccncc3)cs2)s1` (stereo not drawn) [Example 1776], the IC50 was > 1 µM.

In the case of `CC(C)NC(=O)c1csc(-c2oc(CN3CCN(c4ccccn4)CC3)nc2-c2ccc(F)cc2)n1` [Example 1242], the half-maximal inhibitory concentration (IC50) is > 1 µM.

In the case of `CCC(C)NC(=O)c1csc(-c2sc(C)nc2-c2ccc(F)cc2)n1` (stereo not drawn) [Example 1716], the IC50 is > 1 µM.

Turning to `CC(C)NC(=O)c1csc(-c2oc(CN3CCN(c4ccc(C(F)(F)F)cn4)CC3)nc2-c2ccc(F)cc2)n1` [Example 1300], the IC50 is > 1 µM.

For the compound `CC(C)NC(=O)c1coc(-c2c(-c3ccc(F)cc3)noc2C2CCNCC2)n1` [Example 2160, 2-|3-(4-Fluoro-phenyl)-5-piperidin-4-yl-isoxazol-4-yl|-oxazole-4-carboxylic acid isopropylamide], the half-inhibitory concentration (IC50) is ≤ 1 µM.

With `CC1CC(C)CN(Cc2nc(-c3ccc(F)cc3)c(-c3nc(C(=O)NC(C)C)cs3)o2)C1` (stereo not drawn) [Example 1206], the IC50 was > 1 µM.

As to `CCOc1ccccc1CNCc1onc(-c2ccc(F)cc2)c1-c1nc(C(=O)NC(C)C)cs1` [Example 1477], the IC50 is > 1 µM.

With `Cc1c(F)cccc1NCc1nc(-c2ccc(F)cc2)c(-c2nc(C(=O)NC(C)C)cs2)o1` [Example 1329], the concentration for half-maximal inhibition (IC50) was > 1 µM.

For `CCN(CC)CCCC(C)NCc1nc(-c2ccc(F)cc2)c(-c2nc(C(=O)NC(C)C)cs2)o1` (stereo not drawn) [Example 1153], the IC50 was > 1 µM.

Consider `O=C(NCc1ccco1)c1csc(-c2c(-c3ccc(F)cc3)n[nH]c2C2CCNCC2)n1` [Example 2054], for which the concentration for half-maximal inhibition (IC50) is > 1 µM.

For `CC(C)C(CO)NC(=O)c1csc(-c2c(-c3ccc(F)cc3)n[nH]c2C2CCNCC2)n1` (stereo not drawn) [Example 2061], the half-maximal inhibitory concentration (IC50) was ≤ 1 µM.

For `CC(C)NC(=O)c1csc(-c2oc(CNC3CC(C)(C)NC(C)(C)C3)nc2-c2ccc(F)cc2)n1` [Example 1152], the 50% inhibitory concentration (IC50) was > 1 µM.

With `Cc1nc(-c2ccc(F)cc2)c(-c2nc(C(=O)N3CCC(C)CC3)cs2)s1` [Example 1848], the IC50 is > 1 µM.

With `COc1ccc(-c2ccccc2)cc1NC(=O)c1csc(-c2sc(C)nc2-c2ccc(F)cc2)n1` [Example 2020], the IC50 is > 1 µM.

As for `O=C(NCCc1cccc(F)c1)c1csc(-c2c(-c3ccc(F)cc3)n[nH]c2C2CCNCC2)n1` [Example 2106], the IC50 is > 1 µM.

Turning to `COc1ccc(C(=O)N2CCC(c3[nH]nc(-c4ccc(F)cc4)c3-c3nc(C(=O)NC(C)C)cs3)CC2)cc1` [Example 855], the IC50 was > 1 µM.

Turning to `CC1=NN(c2ccc(C(=O)N3CCC(c4[nH]nc(-c5ccc(F)cc5)c4-c4nc(C(=O)NC(C)C)cs4)CC3)cc2)C(=O)C1` [Example 1015], the 50% inhibitory concentration (IC50) is > 1 µM.

Consider `CCN(CC)C(=O)c1csc(-c2sc(C)nc2-c2ccc(F)cc2)n1` [Example 1837], for which the IC50 was > 1 µM.

`CC(C)NC(=O)c1csc(-c2c(-c3ccc(F)cc3)n[nH]c2C2CCN(C(=O)c3cc(F)c(F)c(O)c3F)CC2)n1` [Example 968]: the IC50 was > 1 µM.

Turning to `O=C(NCCCn1ccnc1)c1csc(-c2c(-c3ccc(F)cc3)n[nH]c2C2CCNCC2)n1` [Example 2083], the IC50 was > 1 µM.

For the compound `Cc1ccc([C@@H](C)NC(=O)c2csc(-c3c(-c4ccc(F)cc4)n[nH]c3C3CCNCC3)n2)cc1` [Example 2093], the IC50 is > 1 µM.

With `Cc1ccc(C)c(N2CCN(C(=O)c3csc(-c4sc(C)nc4-c4ccc(F)cc4)n3)CC2)c1` [Example 1919], the IC50 is > 1 µM.

With `CCOc1ccccc1NC(=O)c1csc(-c2sc(C)nc2-c2ccc(F)cc2)n1` [Example 1990], the IC50 is > 1 µM.

Regarding `Cc1nc(-c2ccc(F)cc2)c(-c2nc(C(=O)N3CCN(c4ccc(C#N)cn4)CC3)cs2)s1` [Example 1912], the 50% inhibitory concentration (IC50) is > 1 µM.

On to `CC(C)NC(=O)c1csc(-c2c(-c3ccc(F)cc3)n[nH]c2C2CCN(C(=O)c3cccc(Oc4ccccc4)c3)CC2)n1` [Example 1002], for which the concentration for half-maximal inhibition (IC50) was > 1 µM.

As to `CC(C)NC(=O)c1csc(-c2c(-c3ccc(F)cc3)noc2CNC(=O)C(C)c2ccc(-c3ccccc3)c(F)c2)n1` (stereo not drawn) [Example 799], the IC50 is > 1 µM.

Take `CC(C)NC(=O)c1csc(-c2c(-c3ccc(F)cc3)n[nH]c2C2CCN(C(=O)c3cccc(C#N)c3)CC2)n1` [Example 844]: the IC50 was > 1 µM.

The record behind these values is patent US20060252807A1, “Novel ortho-terphenyl inhibitors of p38 kinase and methods of treating inflammatory disorders” (Kalypsys, Inc., priority 2005, published 2006).
